Publication PMC9445877, “Blockade of TMPRSS2-mediated priming of SARS-CoV-2 by lactoferricin” (Frontiers in Immunology, 2022)
“Also recorded” adds a separate entry of the source. Like-named read-outs stand apart in the source and are kept apart here. Peptide text beside a SMILES is read from it.

How the values were obtained:
[1] = biological target: T1, TMPRSS2 (Homo sapiens, UniProt O15393); assay: In vitro proteolysis assay, TMPRSS2, fluorogenic substrate Boc-Gln-Ala-Arg-AMC; format: biochemical; conditions: 37°C, Boc-Gln-Ala-Arg-AMC; for inhibition of proteolytic activity of TMPRSS2 (in words): Tris-HCl buffer
T1 construct: TMPRSS2 (25 nM; recombinant protein produced in mammalian cells; #MBS1193731, MyBioSource, San Diego, CA); purchased MyBioSource, San Diego, CA #MBS1193731; host or cells: mammalian cells
Method: (§1) Figure 1 Effect of LF and the LF-derived peptides pLF1-pLF3 on the activity of serine proteases. Proteolytic activities of purified TMPRSS2 (A), plasmin (B), elastase (C), and trypsin (D) were measured with or without peptides pLF1, pLF2, pLF3, LF or the control peptide pCTR at 37°C in Tris-HCl buffer using the fluorogenic substrate Boc-Gln-Ala-Arg-AMC. The reaction was monitored using an ELISA reader for the indicated time intervals.
(§2) The proteolytic activities of plasmin (10 nM; from human plasma; #10602361001, Roche Diagnostics GmbH, Mannheim, Germany), trypsin (10 nM; from bovine pancreas; #T1005, Sigma-Aldrich, St. Louis, MO), elastase (20 nM; from porcine pancreas; #E1250, Sigma-Aldrich) and TMPRSS2 (25 nM; recombinant protein produced in mammalian cells; #MBS1193731, MyBioSource, San Diego, CA) were measured in a Nunc black fluorescence-based cell assay plate (Sigma-Aldrich) in Tris-HCl buffer (20 mM, pH 8.0, 150 mM NaCl). The proteases were incubated with or without inhibitory and control compounds at 37°C for 30 min, and then the fluorogenic substrate (Boc-Gln-Ala-Arg-AMC; 25 µM; #BML-P237, ENZO Life Sciences, Lörrach, Germany) was added. The reaction was measured using an ELISA plate reader (Synergy H1 BioTek microplate reader, Winooski, Vermont, U.S., or TECAN GENios, GMI, USA) under the excitation wavelength of 380 nm and the emission wavelength of 460 nm at the indicated time points.

[2] = biological target: T2, plasmin (Homo sapiens, UniProt P00747); assay: In vitro proteolysis assay, plasmin; format: biochemical; conditions: 37°C; for inhibition of proteolytic activity of plasmin (in words): plasmin 10 nM, Tris-HCl buffer, Boc-Gln-Ala-Arg-AMC
T2 construct: purchased Roche Diagnostics GmbH, Mannheim, Germany #10602361001; host or cells: human plasma
Method: as §1, §2
Optionally ( Figure 1B , inset), purified active plasmin (10 mU/mL) was coated in PBS directly on a 96-well Falcon transparent plate for 2 h at 37°C. The wells were then blocked with 1% BSA, washed, and then incubated in PBS at 37°C with the chromogenic plasmin substrate S-2251 (0.8 mM, D-Val-Leu-Lys-pNA, CoaChrom Diagnostica). In this case, the absorbance change at 405 nm was monitored at different time points by using an ELISA plate reader (SpectraMax M5, Molecular Devices).

[3] = system: SARS-CoV-2 infection, Vero cells; format: cell-based, SARS-CoV-2 (African green monkey cells); conditions: n = 3
[4] = system: SARS-CoV-2; format: cell-based; conditions: for SARS-CoV-2 infection of permissive cells (in words): summary statement
[5] = system: SARS-CoV-2 S protein cleavage by TMPRSS2; assay: SARS-CoV-2 S protein digestion assay with TMPRSS2 (immunoblot); format: biochemical; conditions: S protein 1 µg, TMPRSS2 25 nM, 120 min, 37°C, Tris-HCl 20 mM pH 7.5, 150 mM NaCl, n = 4
[6] = system: elastase; assay: In vitro proteolysis assay, elastase; format: biochemical, porcine; conditions: elastase 20 nM; 37°C, Tris-HCl buffer, Boc-Gln-Ala-Arg-AMC
Method: as §1
as §2, with “The proteases were incubated with or without inhibitory and control compounds at 37°C for 30 min, and then the fluorogenic substrate (Boc-Gln-Ala-Arg-AMC; 25 µM; #BML-P237, ENZO Life Sciences, Lörrach, Germany) was added.” left out

[7] = system: Vero cells; assay: Cytotoxicity assay in Vero cells (EZ4U); format: cell-based, African green monkey; conditions: 48 h, without virus, 20 and 40 µg/mL, DMEM/2% FCS, 3 experiments, 80% viability cut-off
Method: Vero cells were seeded into 96-well flat-bottom plates (1×10^4 cells, 80 µl/well) in DMEM medium supplemented with 10% FCS, antibiotics, and non-essential amino acids. On the day of the assay, the medium was exchanged for the reduced serum supplemented DMEM (DMEM/2% FCS) with the peptides or a vehicle only at the designated concentration (100 µl/well). As a positive control, 30% DMSO in DMEM/2% FCS was used. Negative control cells were incubated in DMEM/2% FCS only. Two days (48 h) later, cell viability was assessed as we did previously ([52]) using the EZ4U cell proliferation and cytotoxicity assay substrate (Biomedica Immunoassays, Vienna, Austria).

T1 sequence (O15393 256-492 limits assumed): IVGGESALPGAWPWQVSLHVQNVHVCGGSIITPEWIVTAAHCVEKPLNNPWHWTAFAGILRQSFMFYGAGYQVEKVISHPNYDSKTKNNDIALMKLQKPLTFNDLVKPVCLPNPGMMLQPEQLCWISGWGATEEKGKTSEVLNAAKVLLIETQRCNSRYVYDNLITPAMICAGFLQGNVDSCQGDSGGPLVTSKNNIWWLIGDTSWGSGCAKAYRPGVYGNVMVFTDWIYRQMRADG
T1 sequence (O15393 106-255 limits assumed): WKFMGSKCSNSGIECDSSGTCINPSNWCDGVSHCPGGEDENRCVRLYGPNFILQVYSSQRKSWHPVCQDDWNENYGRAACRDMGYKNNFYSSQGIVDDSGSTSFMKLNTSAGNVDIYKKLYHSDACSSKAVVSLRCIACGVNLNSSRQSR
T2 sequence (P00747 581-810 limits assumed): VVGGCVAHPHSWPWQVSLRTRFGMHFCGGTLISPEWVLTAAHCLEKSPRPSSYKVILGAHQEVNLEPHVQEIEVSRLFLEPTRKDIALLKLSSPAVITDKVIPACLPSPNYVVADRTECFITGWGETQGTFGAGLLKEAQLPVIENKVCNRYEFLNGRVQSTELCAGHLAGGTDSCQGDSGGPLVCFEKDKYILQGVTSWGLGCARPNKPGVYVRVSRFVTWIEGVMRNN
T2 sequence (P00747 97-580 limits assumed): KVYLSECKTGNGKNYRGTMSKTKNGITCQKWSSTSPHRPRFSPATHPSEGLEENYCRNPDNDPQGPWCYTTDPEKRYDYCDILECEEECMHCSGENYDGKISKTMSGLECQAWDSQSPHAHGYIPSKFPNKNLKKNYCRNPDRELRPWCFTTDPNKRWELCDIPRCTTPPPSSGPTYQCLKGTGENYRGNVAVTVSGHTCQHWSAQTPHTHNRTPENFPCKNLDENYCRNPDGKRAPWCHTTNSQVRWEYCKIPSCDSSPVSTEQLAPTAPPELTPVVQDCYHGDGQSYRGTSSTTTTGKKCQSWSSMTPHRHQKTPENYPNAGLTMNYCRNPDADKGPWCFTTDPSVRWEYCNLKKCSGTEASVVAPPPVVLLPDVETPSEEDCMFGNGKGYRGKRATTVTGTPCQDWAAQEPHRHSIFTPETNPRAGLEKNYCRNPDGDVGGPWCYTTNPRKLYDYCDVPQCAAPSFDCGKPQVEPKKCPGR

With aprotinin [reference compound] the “inhibition of proteolytic activity of TMPRSS2 (in words)” value (“inhibition … of TMPRSS2 (in words)” below) [1] was “blunted the proteolytic activity of both proteases” and the “inhibition of proteolytic activity of plasmin (in words)” value [2] was “blunted the proteolytic activity of both proteases”.
With “GRRRRSVQWCAVSQPEATKCFQWQRNMRKVRGPPVSCIKRDSPIQCIQA [LFC, natural peptide of 49 amino acids from the N-terminus of human LF, produced by pepsin cleavage]” the “inhibition … of TMPRSS2 (in words)” value [1] was “inhibitory effect on TMPRSS2 comparable to that of pLF1”, the “inhibition … of TMPRSS2 (in words)” value ([1]; listed as lactoferricin) was “significantly inhibited” and the “infection rate of replication-competent SARS-CoV-2 in Vero cells (in words)” value ([3]; 80 µg/mL, pre-incubation approx. 1 h) was “reduced the infection rate”. For the same molecule, the “inhibition of SARS-CoV-2 infection in Vero and Calu-3 cells” value ([4]; Vero and Calu-3 cells, summary statement in Discussion) was 40-50%, the “SARS-CoV-2 infection of permissive cells (in words)” value [4] was “inhibits cell entry of SARS-CoV-2 through blocking TMPRSS2-mediated virus priming” and the “SARS-CoV-2 infection of permissive cells (in words)” value ([4]; listed as lactoferricin) was “significantly inhibited”.
With “NFRTKSCPLELAKELKLCS [pCTR, negative control peptide, a scrambled variant of pLF3, reference compound]” the “cleavage of SARS-CoV-2 S protein by TMPRSS2 (in words)” value [5] was “no such effect was seen”, the “inhibition … of TMPRSS2 (in words)” value [1] was “neither full-length LF nor pCTR inhibited; also recorded: neither full-length LF nor other tested peptides derived from LF, nor the control peptide pCTR, significantly reduced” and the “inhibition of proteolytic activity of elastase (in words)” value [6] was “neither full-length LF nor other tested peptides derived from LF, nor the control peptide pCTR, significantly reduced”. For the same molecule, the “inhibition of proteolytic activity of plasmin (in words)” value [2] was “neither full-length LF nor a control peptide (pCTR), was able to inhibit; also recorded: neither full-length LF nor other tested peptides derived from LF, nor the control peptide pCTR, significantly reduced” and the “inhibition of SARS-CoV-2 infection, Vero cells (in words)” value ([3]; pre-incubation 40-60 min) was “did not show any inhibitory potential”.
`C[S+](C)[O-]` [30% DMSO] was tested, and the “cytotoxicity, Vero cells (in words)” value [7] was “significantly (p***<0.0005) affected viability of Vero cells”.
With `CC(C)[C@H](NC(=O)[C@H](C)NC(=O)[C@H](CS)NC(=O)[C@H](Cc1c[nH]c2ccccc12)NC(=O)[C@H](CCC(N)=O)NC(=O)[C@@H](NC(=O)[C@H](CO)NC(=O)[C@H](CCCNC(=N)N)NC(=O)[C@H](CCCNC(=N)N)NC(=O)[C@H](CCCNC(=N)N)NC(=O)CN)C(C)C)C(=O)N[C@@H](CO)C(=O)N[C@@H](CCC(N)=O)C(=O)N1CCC[C@H]1C(=O)N[C@@H](CCC(=O)O)C(=O)N[C@@H](C)C(=O)N[C@H](C(=O)N[C@@H](CCCCN)C(=O)N[C@@H](CS)C(=O)O)[C@@H](C)O` [pLF1] (H-GRRRSVQWCAVSQPEATKC-OH) the “maximum inhibition of TMPRSS2 (plateau)” value ([1]; at 40 - 80 µg/mL) was ~ 40% and the IC50 ([2]; Figure 1B inset: plasmin 10 mU/mL coated in PBS, chromogenic substrate S-2251 0.8 mM, PBS, absorbance 405 nm, relative IC50, 4PL fit, experiments at least three times, read-out: half-maximum inhibitory concentration (IC50), plasmin (converted)) was 3.19 µM.
